In test [1] the test system is RANTES. The test is described as follows: RSV-induced RANTES secretion in A549 cells (ELISA). The test is classed as cell-based, human. The following applies: for RSV-induced RANTES production: A549 cells, 24 hours, ELISA; for RSV-induced RANTES secretion: concentration not given, data not shown. The protocol: (§1) Cell culture and infection of epithelial cells with RSV. A549, human alveolar type II-like epithelial cells (ATCC, Manassas, Va.), were maintained in F12K medium containing 10% (v/v) fetal bovine serum (FBS), 10 mM glutamine, 100 IU/ml penicillin and 100 μg/ml streptomycin. Small alveolar epithelial cells (SAE) were obtained from Clonetics (San Diego, Calif.) and grown according to the company instructions. Cell monolayers were infected with RSV at multiplicity of infection (MOI) of 1 (unless otherwise stated), as described (17). An equivalent amount of a 20% sucrose solution was added to uninfected A549 cells, as a control. For the antioxidant experiments, cells were pretreated with the antioxidants for one hour and then infected in the presence of the antioxidants. Since BHA was diluted in ethanol, equal amounts of ethanol were added to untreated cells, as a control. Total number of cells, cell viability and viral replication, following antioxidant treatment, were measured by trypan blue exclusion and by plaque assay, respectively. RANTES ELISA. Immunoreactive RANTES was quantitated by a double antibody ELISA kit (DuoSet, R&D Systems, Minneapolis, Minn.) following the manufacturer's protocol.

A further test concerns STAT. The experiment in a line: RSV-induced STAT activation in alveolar epithelial cells. The test is classed as cell-based.
The test system of test [2] is RANTES. The experiment in a line: RSV-induced RANTES secretion in SAE cells (ELISA). In kind it is cell-based, human. The following applies: 20 mM, 24 hours, ELISA. Here is the method: as §1
The next test has as its system NOS-2. The following applies: retinal epithelial cells, LPS/Interferon-γ; Faure et al. (40); cited from earlier work.

The source of these data is patent US6699459B2, “Methods of treating lung inflammation” (The Board of Regents of the University of Texas System, priority 2001, dated 2004).

Consider `C[S+](C)[O-]` [DMSO, dimethylsulphoxide], for which, in the test with RANTES [1] (2% (v/v)), the “RSV-induced RANTES production” value is on record as “significantly block”.

For the molecule `c1ccc2c(c1)[I+]c1ccccc1-2` [DPI], in the test with STAT, the “STAT activation following RSV infection” value is listed as “greatly reduces (or abolishes)”.

Take `COC(=O)[C@@H](N)CCCNC(=N)N[N+](=O)[O-]` [L-NAME]: the “RSV-induced RANTES secretion” value in the test with RANTES [1] was “no changes”.

Consider `CNC(=N)NCCC[C@H](N)C(=O)O` [L-NMMA], for which the “RSV-induced RANTES secretion” value in the test on RANTES [1] is “no changes”.

On to `CC(=O)N[C@@H](CS)C(=O)O` [NAC, N-acetyl cystein, reference compound], for which the “RSV-induced RANTES production” value with RANTES [2] is on record as “significantly reduced”; with RANTES [1] (20 mM), “significantly block”.

Consider `S=C(S)N1CCCC1` [PDTC], for which the NOS-2 induction result with NOS-2 is “able to inhibit”.

With `CN(C)C(=S)N(C)C` [TMTU, tetramethyl thiourea, reference compound], the results for the “RSV-induced RANTES production” value in the test on RANTES [2] and with RANTES [1] (20 mM) were “significantly reduced” and “significantly block”, respectively.
